From US10064865B2, “Composition comprising phosphodiesterase type 5 inhibitor for inhibiting apoptosis of nerve cells” (ARIBIO INC., priority 2012, dated 2018)
Marks after values point to notes of the source that are not given here.

Columns and labels:
[1] = Dissolution of test material in saline; format: physicochemical; details: mirodenafil 2HCl
Method: (§1) The mirodenafil (mirodenafil 2HCl; SK Chemical Life Science Business, KR) was used in this experiment. […] Mirodenafil was stored at 4° C. in a refrigerator to protect from light and humidity until used. Three different dosages, 0.5, 1 and 2 mg/kg of mirodenafil were directly dissolved in saline and subcutaneously administered in a volume of 1 ml/kg on the dorsal back skins, once a day for 28 days from 24 hrs after stabilization periods from operation. In saline and neuron apoptosis control rats, equal volumes of saline as vehicle were administered, instead of mirodenafil, respectively.
The mirodenafil (mirodenafil 2HCl; SK Chemical Life Science Business, KR) was used in this experiment. […] Mirodenafil was stored at 4° C. in a refrigerator to protect from light and humidity until used. Mirodenafil were directly dissolved in saline as 1 mg/ml concentrations, and subcutaneously administered in a volume of 1 ml/kg on the dorsal back skins from 24, 72 and 168 hrs after neuron apoptosis, once a day for 14 days, respectively. In saline and neuron apoptosis control rats, equal volumes of saline as vehicle were administered, instead of mirodenafil from 24 hrs after neuron apoptosis for 20 days, respectively.

[2] = test system: neuron apoptosis-operated rats; assay: Example 2 body swing test; format: in vivo, Sprague-Dawley (SD) rats
Method: Sensorimotor function was evaluated by use of limb placing (de Ryck M et al., Stroke. 20:1383-90(1989)) and body swing (Borlongan and Sanberg, J Neurosci. 15:5372-8(1995)) tests. These tests were performed at 1 and 28 days after neuron apoptosis. The investigator performing the surgery and behavioral assessments was blinded to treatment assignment.
Body swing tests: Animals were held approximately 2 cm from the base of its tail and elevated to an inch above a surface of a table. A swing was recorded whenever the rat moved its head out of the vertical axis to either side by more than 10° from vertical and then returned to the vertical position. Thirty total swings were counted per animal. After right-hemisphere neuron apoptosis, animals tend to swing to the contralateral (left) side. Thus, the numbers and percentages of body swings to the ipsilateral (right) side were recorded as a measure of recovery, with an intact animal scoring.
All data were expressed as mean±standard deviation (S.D.) of ten rats. Multiple comparison tests for different dose groups were conducted. Variance homogeneity was examined using the Levene test (Levene A, Clin Otalary, 1981; 6:145-51). […] Statistical analyses were conducted using SPSS for Windows (Release 14K, SPSS Inc., USA; Ludbrook, Clin Exp Pharmacol Physiol, 1997; 24:294-6). In addition, the percent changes as compared with neuron apoptosis control and mirodenafil treated rats were calculated to help the understanding of the efficacy of test substances as follow Equation 6 and 7. Percentage Changes as Compared with Sham Control (%)=[((Data of neuron apoptosis control−Data of sham control rat)/Data of sham control rats)×100] [EQUATION 6] Percentage Changes as Compared with neuron apoptosis Control (%)=[((Data of test material treated rats−Data of neuron apoptosis control rats)/Data of neuron apoptosis control rats)×100] [EQUATION 7]

[3] = test system: neuron apoptosis-operated rats, ipsilateral cerebral cortex; assay: Example 1 histopathology (H&E): cerebral atrophy and degenerative neurons; format: in vivo, Sprague-Dawley (SD) rats; details: for Cerebral atrophic % / Numbers of neurons: Degenerative cells: 29 days after neuron apoptosis
Method: Total one hundred healthy male Sprague-Dawley (SD) rats (6-wk old upon receipt; Japan; Body weight ranged in 180-200 g upon receipt) were used after acclimatization for […]. Animals were allocated five per polycarbonate cage in a temperature (20-25° C.) and humidity (50-55%) controlled room. Light:dark cycle was 12 hr:12 hr, and standard rodent chow (Samyang, Korea) and water were supplied free to access. All animals were treated in accordance with the Guidelines for Care and Use of Laboratory Animals of Daegu Haany University based on the Guide for the Care and Use of Laboratory Animals by Institute of Laboratory Animal Resources, Commission on Life Science, National Research Council, USA on 1996, Washington D.C. Experimental groups were as follows:
as §1
The induction of neuron apoptosis was carried out by damaging the right hemisphere of the brain of animals. Specifically, animals were anesthetized with 2 or 3% isoflurane in the mixture of 70% N2O and 28.5% O2, and were maintained with 1 to 1.5% isoflurane in the mixture of 70% N2O and 28.5% O2. After that the temporalis muscle was bisected and reflected through an incision made midway between the eye and the eardrum canal. The proximal MCA was exposed through a subtemporal craniectomy by microdental drills without removing the zygomatic arch and without transecting the facial nerve. […] Mortality was less than 5%. For sham control, all procedures were performed in the same way, with the exception of the occlusion of the MCA.
At 29 days after neuron apoptosis rats were sacrificed. Brains were removed, washed in chilled phosphate buffered saline (PBS, pH7.4), and dissected into 6 coronal sections (2 mm thickness) ranging from 2 to 14 mm from the frontal brain pole on the rat brain stainless steel coronal matrix (Harvard, USA). Brain slices prepared by the stainless steel coronal matrix were directly fixed in 10% NBF, not stained with TTC. Then, embedded in paraffin, cross-sectioned, and stained with hematoxylin and eosin (H&E) for observing general histopathology of cerebral cortex. […] The histopathologist was blindes to group distribution when this analysis was made.
Histomorphometry: The atrophic % of ipsilateral cerebral cortex was calculated as following equation 1 as compared with intact contralateral hemisphere. In addition, the numbers of degenerative neurons were also measured in the restricted view fields of cerebral cortex, mm^2, respectively. Cerebral atrophy formation=(Contralateral cerebral cortex area−ipsilateral cerebral cortex area)/Contralateral cerebral cortex area×100(%) [EQUATION 1]
All data were expressed as mean±standard deviation (S.D.) of ten rats. Multiple comparison tests for different dose groups were conducted. Variance homogeneity was examined using the Levene test (Levene A, Clin Otalary, 1981; 6:145-51). […] Statistical analyses were conducted using SPSS (Release 14K, SPSS Inc., USA; Ludbrook, Clin Exp Pharmacol Physiol, 1997; 24:294-6). In addition, the percent changes between neuron apoptosis control and mirodenafil treated rats were calculated to help the understanding of the efficacy of test material as follow equation 3. Percentage changes as compared with neuron apoptosis control (%)=[((Data of mirodenafil treated groups−Data of neuron apoptosis control)/Data of neuron apoptosis control)×100] [EQUATION 3]

CCCOc1ccc(S(=O)(=O)N2CCN(CCO)CC2)cc1-c1nc2c(CCC)cn(CC)c2c(=O)[nH]1 [Mirodenafil, mirodenafil]
solubility in saline [1]: well dissolved in saline
numbers and percentages of body swings to ipsilateral right sides at 28 days, change as compared with neuron apoptosis control ([2]; 1 mg/kg from 24 hrs after surgery): 82.00%
numbers and percentages of body swings to ipsilateral right sides at 28 days, change as compared with neuron apoptosis control ([2]; 1 mg/kg from 72 hrs after surgery): 48.00%
numbers and percentages of body swings to ipsilateral right sides at 28 days, change as compared with neuron apoptosis control ([2]; 1 mg/kg from 168 hrs after surgery): 14.00%
ipsilateral cerebral atrophic %, change as compared with neuron apoptosis control ([3]; 0.5 mg/kg): −8.70%
numbers of degenerative neurons, change as compared with neuron apoptosis control ([3]; 0.5 mg/kg): −44.47%
Cerebral atrophic % ([3]; 0.5 mg/kg s.c. once a day): 51.38 ± 10.74^a %
Numbers of neurons: Degenerative cells ([3]; 0.5 mg/kg s.c. once a day): 45.20 ± 8.97^ab cells/mm^2 of cerebral cortex
ipsilateral cerebral atrophic %, change as compared with neuron apoptosis control ([3]; 1 mg/kg): −46.42%
numbers of degenerative neurons, change as compared with neuron apoptosis control ([3]; 1 mg/kg): −73.46%
Cerebral atrophic % ([3]; 1 mg/kg s.c. once a day): 30.15 ± 10.28^ab %
Numbers of neurons: Degenerative cells ([3]; 1 mg/kg s.c. once a day): 21.60 ± 9.43^ab cells/mm^2 of cerebral cortex
ipsilateral cerebral atrophic %, change as compared with neuron apoptosis control ([3]; 2 mg/kg): −53.31%
numbers of degenerative neurons, change as compared with neuron apoptosis control ([3]; 2 mg/kg): −76.54%
Cerebral atrophic % ([3]; 2 mg/kg s.c. once a day): 26.28 ± 9.12^ab %
Numbers of neurons: Degenerative cells ([3]; 2 mg/kg s.c. once a day): 19.10 ± 2.08^ab cells/mm^2 of cerebral cortex
